These are literature values, as cited in patent US6815463B2, “Laulimalide derivatives” (Kosan Biosciences, Inc., priority 2001, dated 2004).

The series concerns microtubules. As to conditions: for stabilization of microtubules: similar to paclitaxel, Mooberry et al. 1999, WO 01/54689.

As to `C=C1C[C@H](C)C[C@@H]2CC=C[C@@H](C/C=C\C(=O)O[C@H]3C[C@@H](O[C@H]3/C=C/[C@@H]3CC(C)=CCO3)[C@@H](O)[C@@H](O)C1)O2` [isolaulimalide], the stabilization of microtubules entry is given as “potent stabilizers of microtubules”. The “potency as stabilizer of microtubule polymerization relative to laulimalide” value (comparison with laulimalide) is listed as “less potent stabilizer of microtubule polymerization than laulimalide”.

Consider `C=C1C[C@H](C)C[C@@H]2CC=C[C@@H](C/C=C\C(=O)O[C@H]([C@@H](O)/C=C/[C@@H]3CC(C)=CCO3)C[C@@H]3O[C@H]3[C@@H](O)C1)O2` [laulimalide, Laulimalide], for which the stabilization of microtubules entry was “potent stabilizers of microtubules”.
